In US6897244B2, “Dihydronootkatone and tetrahydronootkatone as repellents to arthropods” (Board of Supervisors of Louisiana State University and …, priority 2002, dated 2005):

Key:
ants = conditions: previously discovered, U.S. Ser. No. 09/932,555; cited from earlier work
[1] = test system: Formosan subterranean termites; experiment: Petri dish treated/untreated sand bioassay for repelling activity against termites; assay type: in vivo, Coptotermes formosanus; design: key to percent of termites on untreated sand vs expected value of 50% (Chi-Square, p≦0.05): “−” indicates the test was not significantly different from the expected value; “+” indicates the test was significantly different from the expected value
Procedure: A carton nest (colony A) of Formosan subterranean termites was collected in Algiers, Louisiana in November 1997, and held in 250-liter cans. The cans were filled with pine as a food source, and kept at a temperature range of 24-26° C. Moistened corrugated cardboard rolls were used to retrieve termites from the cans. Once the termites migrated to the cardboard rolls, they were gently knocked from the cardboard rolls into clean rectangular plastic trays (40 cm×50 cm). Retrieved termites were isolated from debris by allowing them to cling to sheets of moistened paper towels. The average weight of each termite was 1.21 mg.
To test for effectiveness of nootkatone, 1,10-dihydronootkatone and tetrahydronootkatone in repelling termites, a bioassay was conducted using Petri dishes (5 cm diameter and 1 cm height). To ensure adequate moisture for the termites, 1 ml of a hot agar solution (1.5% in H2O) was spread on the bottom of the Petri dish. After the agar cooled, sand that was treated as described below was spread on the bottom of the Petri dish. For the treated sand, purified 1,10-dihydronootkatone or tetrahydronootkatone were dissolved in 2 ml ethanol, and then diluted to achieve final concentrations of 1, 2, 5, 12.5, 25, 50, and 100 μg/g sand. The solution was mixed with 1 g sand that had been autoclaved and cooled. The control sand was autoclaved sand with only 200 μl ethanol added. One half of the surfaces in the Petri dishes were covered with 1 g treated sand, and the other half with 1 g untreated sand.
The prepared Petri dishes were then used to evaluate the repelling activity against Formosan subterranean termites. Ten worker termites were added to each Petri dish, and the dishes were covered to eliminate light. Five replicate dishes were tested for each concentration and for the control. Termite position was recorded every 15 min during the first hour of testing by counting the number of termites observed on untreated sand. After the first hour, termite position was recorded each hour for 3 hr.
Differences between the percent of termites on untreated sand and an expected value were statistically analyzed by a Chi-Square analysis, using an expected value of 50% and a significance level of p≦0.05.

fleas = conditions: previously demonstrated, U.S. Ser. No. 09/932,555; cited from earlier work
cockroaches = conditions: previously discovered, U.S. Ser. No. 09/932,555; cited from earlier work
ticks = conditions: previously discovered, U.S. Ser. No. 09/932,555; cited from earlier work

In the case of `C=C(C)C1CCC2=CC(=O)CC(C)C2(C)C1` (centres unmarked) [Nootkatone, 4,4a,5,6,7,8-hexahydro-6-isopropenyl-4,4a-dimethyl-2(3H)-naphthalenone], the activity against ants (ants) is listed as “significant repellent and toxicant”, the “percent of termites on untreated sand vs expected value of 50% (Chi-Square, p≦0.05)” value (“percent … of 50% (Chi-Square, p≦0.05)” below) ([1]; 2 μg/dish, 0.25 hour) is listed as “−” and the “percent … of 50% (Chi-Square, p≦0.05)” value ([1]; 2 μg/dish, 0.5 hour) is listed as “−”. The “percent … of 50% (Chi-Square, p≦0.05)” value ([1]; 2 μg/dish, 0.75 hour) was “−”, the “percent … of 50% (Chi-Square, p≦0.05)” value ([1]; 2 μg/dish, 1 hour) was “−” and the “percent … of 50% (Chi-Square, p≦0.05)” value ([1]; 2 μg/dish, 2 hour) was “−”. The “percent … of 50% (Chi-Square, p≦0.05)” value ([1]; 2 μg/dish, 3 hour) was “−”, the “percent … of 50% (Chi-Square, p≦0.05)” value ([1]; 5 μg/dish, 0.25 hour) was “−” and the “percent … of 50% (Chi-Square, p≦0.05)” value ([1]; 5 μg/dish, 0.5 hour) was “−”. For the same compound, the “percent … of 50% (Chi-Square, p≦0.05)” value ([1]; 5 μg/dish, 0.75 hour) was “−”, the “percent … of 50% (Chi-Square, p≦0.05)” value ([1]; 5 μg/dish, 1 hour) was “−” and the “percent … of 50% (Chi-Square, p≦0.05)” value ([1]; 5 μg/dish, 2 hour) was “−”. For the same compound, the “percent … of 50% (Chi-Square, p≦0.05)” value ([1]; 5 μg/dish, 3 hour) was “−”, the “percent … of 50% (Chi-Square, p≦0.05)” value ([1]; 12.5 μg/dish, 0.25 hour) was “−” and the “percent … of 50% (Chi-Square, p≦0.05)” value ([1]; 12.5 μg/dish, 0.5 hour) was “−”. For the same compound, the “percent … of 50% (Chi-Square, p≦0.05)” value ([1]; 12.5 μg/dish, 0.75 hour) was “−”, the “percent … of 50% (Chi-Square, p≦0.05)” value ([1]; 12.5 μg/dish, 1 hour) was “−” and the “percent … of 50% (Chi-Square, p≦0.05)” value ([1]; 12.5 μg/dish, 2 hour) was “−”. For the same compound, the “percent … of 50% (Chi-Square, p≦0.05)” value ([1]; 12.5 μg/dish, 3 hour) was “−”, the “percent … of 50% (Chi-Square, p≦0.05)” value ([1]; 25 μg/dish, 0.25 hour) was “−” and the “percent … of 50% (Chi-Square, p≦0.05)” value ([1]; 25 μg/dish, 0.5 hour) was “−”. For the same compound, the “percent … of 50% (Chi-Square, p≦0.05)” value ([1]; 25 μg/dish, 0.75 hour) was “−”, the “percent … of 50% (Chi-Square, p≦0.05)” value ([1]; 25 μg/dish, 1 hour) was “−” and the “percent … of 50% (Chi-Square, p≦0.05)” value ([1]; 25 μg/dish, 2 hour) was “−”. For the same compound, the “percent … of 50% (Chi-Square, p≦0.05)” value ([1]; 25 μg/dish, 3 hour) was “−”, the “percent … of 50% (Chi-Square, p≦0.05)” value ([1]; 50 μg/dish, 0.25 hour) was “+” and the “percent … of 50% (Chi-Square, p≦0.05)” value ([1]; 50 μg/dish, 0.5 hour) was “−”. The “percent … of 50% (Chi-Square, p≦0.05)” value ([1]; 50 μg/dish, 0.75 hour) was “−”, the “percent … of 50% (Chi-Square, p≦0.05)” value ([1]; 50 μg/dish, 1 hour) was “+” and the “percent … of 50% (Chi-Square, p≦0.05)” value ([1]; 50 μg/dish, 2 hour) was “−”. For the same compound, the “percent … of 50% (Chi-Square, p≦0.05)” value ([1]; 50 μg/dish, 3 hour) was “−”, the “percent … of 50% (Chi-Square, p≦0.05)” value ([1]; 100 μg/dish, 0.25 hour) was “+” and the “percent … of 50% (Chi-Square, p≦0.05)” value ([1]; 100 μg/dish, 0.5 hour) was “+”. The “percent … of 50% (Chi-Square, p≦0.05)” value ([1]; 100 μg/dish, 0.75 hour) was “+”, the “percent … of 50% (Chi-Square, p≦0.05)” value ([1]; 100 μg/dish, 1 hour) was “+” and the “percent … of 50% (Chi-Square, p≦0.05)” value ([1]; 100 μg/dish, 2 hour) was “+”. For the same compound, the “percent … of 50% (Chi-Square, p≦0.05)” value ([1]; 100 μg/dish, 3 hour) was “+”, the “concentration required for a significant effect of the treated sand on termite distribution” value ([1]; time periods greater than 1 hr) was 100 μg/dish and the effect on fleas (fleas) was “not affected”. For the same compound, the activity against cockroaches (cockroaches) was “repellent” and the activity against ticks (ticks) was “significant repellent and toxicant”.
